Experimental findings from patent US20040235761A1, “Novel virus proliferaton inhibition/virucidal method and novel pyradine nucleotide/pyradine nucleoside analogue” (priority 2001, published 2004) are described below.

Read-outs that look alike come from different tables or passages of the source.

Assay [1] addresses Inosine monophosphate dehydrogenase (IMPDH). Put plainly: Inosine monophosphate dehydrogenase (IMPDH) inhibition test. The format is biochemical. Conditions: IMPDH enzyme solution from MDCK cell homogenate, 37° C., 1 hour; read-out: 50% inhibition concentration. As to the method:
MDCK cells monolayer-cultured on a culture plate were suspended in 0.05 M Tris-HCl (pH 8.0), and the suspension was homogenated with a Downs homogenizer to obtain a cell homogenate. The cell homogenate was centrifuged at 16000×g, and the thus obtained supernatant was used as an IMPDH enzyme solution.
As reaction compositions, 0.1 M Tris-HCl (pH 8.0), 0.1 M KCl, 30 mM EDTA, 5 mM NAD, 5 mg/mL bovine serum albumin, and 0.04 mM [8-^14C]-inosine 5′-monophosphate were used. After completion of reaction at 37° C. for 1 hour, 2 volumes of acetonitrile were added to terminate the reaction, and the reaction product was concentrated. The obtained concentrate was analyzed under the HPLC conditions indicated below. The ratio between the reaction substrate ([^14C]-inosine 5′-monophosphate) and the reaction product ([^14C]-xanthosine 5′-monophosphate) was obtained, and the reaction rate was calculated. Ribavirin monophosphate was used as a control compound.

For assay [2], the system named is bovine diarrhea virus (BVDV) NADL. As to the kind of experiment: Anti-BVDV effect (plaque inhibition in MDBK cells). It counts as cell-based. The following applies: Bovine viral diarrhea virus isolates and strains, 72 h, 100 μg/mL test compound, 70 PFU/well, 3 days, read-out: Inhibition rate (plaque inhibition rate). As to the method:
MDBK cells that had fully grown in a 6-well culture plate were infected with bovine diarrhea virus (BVDV) NADL at 70 PFU/well. After 60 minutes, the infection solution was removed, and a test culture solution (E′-MEM) containing 5% horse serum and 1% agar (SeaPlaque Agar) that contained a 100 μg/mL test compound was added thereto. The mixture was fully solidified and then cultured for 3 days under conditions of 37° C., a humidity of 100% and 5% CO2. After completion of the culture, the test plate was fixed with a 3% formaldehyde solution, and the agar medium was removed with running water, followed by staining with a 1% crystal violet solution, so as to count the number of plaques. The plaque inhibition rate was expressed by the percentage obtained by comparing with a control to which no test compounds were added.

The test system of assay [3] is influenza virus A/PR/8/34. Put plainly: Anti-influenza effect (plaque inhibition in MDCK cells). It counts as cell-based. Conditions: PR/8, MDCK, 72 h, read-out: Inhibition rate (plaque inhibition rate).
For assay [4], the target named is T1, Influenza virus polymerase (crude enzyme from virus particles) (Influenza A virus, UniProt P03431).
T1 construct: these particles were used as polymerase crude enzymes; from tissue; host or cells: influenza virus particles lysed with Triton N101/LPC (crude enzyme)
T1 sequence (P03431 whole entry, looked up): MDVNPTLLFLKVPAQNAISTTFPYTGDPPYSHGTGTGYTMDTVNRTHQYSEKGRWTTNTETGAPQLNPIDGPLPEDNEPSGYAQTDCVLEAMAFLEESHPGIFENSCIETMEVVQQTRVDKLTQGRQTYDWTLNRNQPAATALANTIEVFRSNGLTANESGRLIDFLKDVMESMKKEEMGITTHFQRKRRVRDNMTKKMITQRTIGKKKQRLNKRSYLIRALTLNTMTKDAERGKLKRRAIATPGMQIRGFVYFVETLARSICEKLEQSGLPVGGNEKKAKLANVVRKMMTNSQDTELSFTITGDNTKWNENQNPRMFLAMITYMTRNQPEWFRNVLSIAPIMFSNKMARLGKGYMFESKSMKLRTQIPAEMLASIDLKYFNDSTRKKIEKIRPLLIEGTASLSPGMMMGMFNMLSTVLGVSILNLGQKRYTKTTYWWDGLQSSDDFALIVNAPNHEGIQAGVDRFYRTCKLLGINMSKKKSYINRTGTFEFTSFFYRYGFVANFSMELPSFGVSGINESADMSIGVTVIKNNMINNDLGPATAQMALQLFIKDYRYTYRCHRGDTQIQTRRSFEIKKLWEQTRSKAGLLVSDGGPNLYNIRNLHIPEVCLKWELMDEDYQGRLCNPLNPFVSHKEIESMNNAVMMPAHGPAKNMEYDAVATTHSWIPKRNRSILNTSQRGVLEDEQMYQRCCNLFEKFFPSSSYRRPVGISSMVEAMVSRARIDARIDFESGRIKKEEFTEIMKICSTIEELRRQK
Put plainly: Polymerase inhibition test (influenza virus). The format is biochemical. The following applies: 30° C., 60 minutes, 32P-GTP incorporation, read-out: 50% inhibition concentration. As to the method: Influenza virus particles were treated with a dissolving solution (100 mM Tris-HCl (pH 8), 100 mM KCl, 5 mM MgCl2, 1.5 mM DTT, 5% glycerol, 1.5% Triton N101, 1% LPC), and these particles were used as polymerase crude enzymes. Each of the test compounds with different concentrations was added to a reaction buffer (100 mM Tris-HCl (pH 8.0), 100 mM KCl, 5 mM MgCl2, 1 mM DTT, 0.25% Triton N101, 0.25 mM ApG, 0.1 mM ATP, 0.05 mM CTP, 0.05 mM UTP, 0.0005 mM GTP, ^32P-GTP, crude enzyme), followed by incubation at 30° C. for 60 minutes. Thereafter, 10% trichloroacetic acid (TCA) was added thereto, and the mixture was retained on ice for 60 minutes. Thereafter, it was dropped on a GF/C filter, and the filter was then washed with 5% TCA. The filter was dried, and scintillation cocktail was added thereto. The radioactivity was determined using a liquid scintillation counter. The measurement value was given as a 50% inhibition concentration, providing that a group in which no test compounds were added was defined as 100%.

For assay [5], the target named is T2, HCV polymerase (NS5B region of hepatitis C virus) (Hepatitis C virus genotype 1a, UniProt P27958).
T2 construct: The NS5B region of hepatitis C virus was produced in Escherichia coli; made in house; host or cells: Escherichia coli
T2 sequence (P27958 2421-3011): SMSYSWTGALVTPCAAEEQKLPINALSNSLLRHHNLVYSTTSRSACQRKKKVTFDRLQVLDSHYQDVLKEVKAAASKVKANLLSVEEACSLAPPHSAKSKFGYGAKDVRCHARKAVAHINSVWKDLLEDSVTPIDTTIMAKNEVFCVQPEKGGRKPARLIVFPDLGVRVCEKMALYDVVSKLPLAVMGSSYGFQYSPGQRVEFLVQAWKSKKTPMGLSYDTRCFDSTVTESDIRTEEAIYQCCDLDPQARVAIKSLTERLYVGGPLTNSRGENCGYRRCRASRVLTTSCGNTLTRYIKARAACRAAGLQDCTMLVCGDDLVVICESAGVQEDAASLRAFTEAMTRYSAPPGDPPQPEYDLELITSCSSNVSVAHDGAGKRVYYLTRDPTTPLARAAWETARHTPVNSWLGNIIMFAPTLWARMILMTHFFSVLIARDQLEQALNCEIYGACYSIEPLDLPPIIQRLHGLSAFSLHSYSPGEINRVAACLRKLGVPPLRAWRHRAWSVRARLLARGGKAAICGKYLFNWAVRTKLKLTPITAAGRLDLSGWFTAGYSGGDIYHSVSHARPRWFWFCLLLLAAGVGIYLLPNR
As to the kind of experiment: Polymerase inhibition test (hepatitis C virus). It counts as biochemical. As to the method:
The NS5B region of hepatitis C virus was produced in Escherichia coli, and it was used as HCV polymerase for the test. The sequence of the 3′-region of HCV was prepared by the in vitro transcription method, and it was used as an RNA template for the test.
Each of the test compounds with different concentrations was added to a reaction buffer (20 mM Tris-HCl (pH 8.0), 0.05 mM MnCl2, 1 mM DTT, 20 units RNase inhibitor, [α-^32P]GTP, 0.05 mM each of ATP, CTP and UTP, and 2 μg/mL RNA template), followed by incubation at 30° C. for 2 hours. Thereafter, 10% TCA was added to terminate the reaction. Thereafter, the reaction solution was dropped on a DE81 filter, and the filter was then washed with 5% TCA. The filter was dried, and scintillation cocktail was added thereto. The radioactivity was determined using a liquid scintillation counter. The measurement value was given as a 50% inhibition concentration, providing that a group in which no test compounds were added was defined as 100%.

The target of assay [6] is human RNA polymerase (Hela cell nucleus extract) (Homo sapiens, UniProt P24928+P30876). As to the kind of experiment: Human RNA polymerase inhibition test. The format is biochemical. The following applies: 30° C., 1 hour, read-out: 50% inhibition concentration. As to the method: A Hela cell nucleus extract (Promega) was used as human RNA polymerase for the test. The pCMP script was cleaved with restriction enzymes and then purified, and it was used as a DNA template for the test.
Each of the test compounds with different concentrations was added to a reaction buffer (Hela cell nucleus extract, 3 mM MgCl2, 0.4 mM each of ATP, UTP and CTP, 0.016 mM GTP, 16 μg/mL DNA template, 0.4 mCi/mL [α-^32P]GTP), followed by incubation at 30° C. for 1 hour. After completion of the reaction, the reaction solution was dropped on a DE81 filter, and the filter was then washed with 5% Na2HPO4 solution 3 times for 30 minutes, and then with distilled water once for 1 minute. The filter was dried, and scintillation cocktail was added thereto. The radioactivity was determined using a liquid scintillation counter. The measurement value was given as a 50% inhibition concentration, providing that a group in which no test compounds were added was defined as 100%.

[7] abbreviates: NS5B produced in Escherichia coli, 30° C., 2 hours, read-out: 50% inhibition concentration.

As for `NC(=O)c1ncn([C@@H]2O[C@H](COP(=O)(O)O)[C@@H](O)[C@H]2O)n1` [Control compound, Ribavirin monophosphate, reference compound], the IC50 in assay [1] stood at 1.9 µM.

For the molecule `CC(C)(C)C(=O)SCCOP(=O)(OCCSC(=O)C(C)(C)C)OC[C@H]1O[C@@H](n2cc(Cl)nc(C(N)=O)c2=O)[C@H](O)[C@@H]1O` [Example 4, 2,2-dimethyl-thiopropionic acid S-(2-{[(2R,3S,4R,5R)-5-(3-carbamoyl-5-chloro-2-oxo-2H-pyrazine-1-yl)-3,4-dihydroxy-tetrahydro-furan-2-ylmethoxy]-[2-(2,2-dimethyl-propionylsulfanyl)-ethoxy]-phosphoryloxy]-ethyl) ester], the inhibition – broadly, the drop in the measured response relative to a control, in per cent – at 100 µg/mL in assay [2] came out at 68%.

On to `CC(C)(C)C(=O)OCOP(=O)(OCOC(=O)C(C)(C)C)OC[C@H]1O[C@@H](n2ccnc(C(N)=O)c2=O)[C@H](O)[C@@H]1O` [Example 6, 2,2-dimethyl-propionic acid[(2R,3S,4R,5R)-5-(3-carbamoyl-2-oxo-2H-pyrazine-1-yl)-3,4-dihydroxy-tetrahydro-furan-2-ylmethoxy]-(2,2-dimethyl-propionyloxymethoxy)-phosphoryloxymethyl ester], for which the inhibition at 100 µg/mL worked out at 100% in assay [3] and 57% in assay [2].

On to `Cc1cn([C@@H]2O[C@H](CO)[C@@H](O)[C@H]2O)c(=O)c(C(N)=O)n1` [Example 11, 4-[(2R,3R,4S,5R)-3,4-dihydroxy-5-(hydroxymethyl)tetrahydro-2-furanyl]-6-methyl-3-oxo-3,4-dihydro-2-pyrazinecarboxamide], for which the inhibition at 100 µg/mL in assay [3] came to 24%.

On to `CC(=O)OC[C@H]1O[C@@H](n2ccnc(C(N)=O)c2=O)[C@H](OC(C)=O)[C@@H]1OC(C)=O` [Example 22, (2R,3R,4R,5R)-4-(acetyloxy)-2-[(acetyloxy)methyl]-5-[3-(aminocarbonyl)-2-oxo-1(2H)-pyrazinyl]tetrahydro-3-furanyl acetate], for which the inhibition at 100 µg/mL in assay [3] turned out to be 33%.

For the molecule `CC(=O)OC[C@H]1O[C@@H](n2cc(F)nc(C(N)=O)c2=O)[C@H](OC(C)=O)[C@@H]1OC(C)=O` [Example 31, (2R,3R,4R, 5R)-4-(acetyloxy)-2-[(acetyloxy)methyl]-5-[3-(aminocarbonyl)-5-fluoro-2-oxo-1(2H)-pyrazinyl] tetrahydro-3-furanyl acetate], the inhibition at 100 µg/mL in assay [3] was determined as 44%.

For `NC(=O)c1nc(F)cn([C@@H]2O[C@H](CO)[C@@H](O)[C@H]2O)c1=O` [Example 32, 4-[(2R,3R,4S,5R)-3,4-dihydroxy-5-(hydroxymethyl)tetrahydro-2-furanyl]-6-fluoro-3-oxo-3,4-dihydro-2-pyrazinecarboxamide], the inhibition at 100 µg/mL in assay [3] and in assay [2] was 100% in each case.

With `NC(=O)c1nc(F)cn([C@@H]2O[C@H](COP(=O)(O)O)[C@@H](O)[C@H]2O)c1=O` [Example 37, [(2R,3S,4R,5R)-5-[3-(aminocarbonyl)-5-fluoro-2-oxo-1(2H)-pyrazinyl]-3,4-dihydroxytetrahydro-2-furanyl]methyl phosphate], the IC50 in assay [1] was determined as 740 µM.

Consider `NC(=O)c1nc(Cl)cn([C@@H]2O[C@H](CO)[C@@H](O)[C@H]2O)c1=O` [Reference Example 7, 6-chloro-4-[(2R,3R,4S,5R)-3,4-dihydroxy-5-(hydroxymethyl)tetrahydro-2-furanyl]-3-oxo-3,4-dihydro-2-pyrazinecarboxamide], for which the inhibition at 100 µg/mL in assay [3] was determined as 42%.

With `CC(=O)O[C@@H]1[C@H](OC(C)=O)[C@@H](CO)O[C@H]1n1cc(F)nc(C(N)=O)c1=O` [Reference Example 12, (2R,3R,4R,5R)-4-(acetyloxy)-2-[3-(aminocarbonyl)-5-fluoro-2-oxo-1(2H)-pyrazinyl]-5-(hydroxymethyl)tetrahydro-3-furanyl acetate], the inhibition at 100 µg/mL in assay [3] turned out to be 78%.

As for `NC(=O)c1nc(F)cn([C@@H]2O[C@H](COP(=O)(O)OP(=O)(O)OP(=O)(O)O)[C@@H](O)[C@H]2O)c1=O` [Reference Example 16, [[2R,3S,4R,5R]-5-[3-(aminocarbonyl)-5-fluoro-2-oxo-1(2H)-pyrazinyl]-3,4-dihydroxytetrahydro-2-furanyl]methyl triphosphate], the IC50 stood at 140 nM in assay [4] and 750 nM in assay [5] (setting [7]).

For `NC(=O)c1nc(Cl)cn([C@@H]2O[C@H](COP(=O)(O)OP(=O)(O)OP(=O)(O)O)[C@@H](O)[C@H]2O)c1=O` [Reference Example 17, {(2R,3S,4R,5R)-5-[3-(aminocarbonyl)-5-chloro-2-oxo-1(2H)-pyrazinyl]-3,4-dihydroxytetrahydro-2-furanyl}methyl triphosphate], the IC50 was determined as 330 nM in assay [4] and 2700 nM in assay [5] (setting [7]).

Regarding `NC(=O)c1nccn([C@@H]2O[C@H](COP(=O)(O)OP(=O)(O)OP(=O)(O)O)[C@@H](O)[C@H]2O)c1=O` [Reference Example 22, {(2R,3S,4R,5R)-5-[3-(aminocarbonyl)-2-oxo-1(2H)-pyrazinyl]-3,4-dihydroxytetrahydro-2-furanyl} methyl triphosphate], the IC50 in assay [4] was 76 nM; in assay [5] (setting [7]) it was 88 nM; in assay [6] it was greater than 200 µM.

Take `Cc1cn([C@@H]2O[C@H](COP(=O)(O)OP(=O)(O)OP(=O)(O)O)[C@@H](O)[C@H]2O)c(=O)c(C(N)=O)n1` [Reference Example 23, {(2R,3S,4R,5R)-5-[3-(aminocarbonyl)-5-methyl-2-oxo-1(2H)-pyrazinyl]-3,4-dihydroxytetrahydro-2-furanyl}methyl triphosphate]: the IC50 was found to be 250 nM in assay [4] and 2200 nM in assay [5].

For `NC(=O)c1nccn([C@@H]2O[C@H](COP(=O)(O)O)[C@@H](O)[C@H]2O)c1=O` [Reference Example 30, {(2R,3S,4R,5R)-5-[3-(aminocarbonyl)-2-oxo-1(2H)-pyrazinyl]-3,4-dihydroxytetrahydro-2-furanyl}methyl phosphate], the IC50 in assay [1] turned out to be 980 µM.
